From patent publication US4559346A, “Certain N-octahydro-indolizinebenzamides and their use in treating psychosis, cardiac arrhythmia and hypertension” (Beecham Group p.l.c., priority 1982, dated 1985) come the findings set out here.

The test has as its system post-synaptic Dopamine (D.A.) receptors. The test can be described thus: Inhibition of apomorphine induced climbing in the mouse. In kind it is in vivo. Particulars: male CDI mice, p.o., 1/2 hour post dosing, apomorphine 1 mg/kg s.c.; for ED50 (dose for 50% inhibition of apomorphine-induced climbing): 30 min; for ED50: Mus musculus, po, 0.5 h, read-out: ED50 (dose for 50% inhibition of apomorphine-induced climbing). The method, then: Inhibition of apomorphine induced climbing in the mouse
The test is based on that described by Protais, P., Constantin, J. and Schwartz J. C.
When mice are given a dose of 1 mg/kg apomorphine and then placed in an enclosed environment, such as an inverted wire cage, they are seen to climb around the walls. This behavioural phenomenon is thought to be a consequence of the stimulation of post-synaptic Dopamine (D.A.) receptors in the nucleus accumbens. Inhibition of apomorphine induced climbing is therefore indicative of post-synaptic D.A. receptor blockade in the accumbens.
Groups of 10 male CDI mice, weighing 25-30 g were pretreated orally with either graded doses of the test compound or vehicle, at appropriate time intervals before the subcutaneous administration of a sub-maximal dose of apomorphine (1 mg/kg). Immediately after the apomorphine injection the mice were placed in wire `climbing cages` and each animal was scored for climbing behavour at 10 and 20 minutes post apomorphine as follows:
Four paws on cage floor=0
The total score was calculated for each group of mice and expressed as a percentage inhibition of climbing.
Total score for apomorphine control

Consider “(±) 4-Amino-5-chloro-2-methoxy-N-(7'β-[3'-o-fluorophenyl-1'-aza-5'αH-bicyclo[4,3,0]nonyl)]benzamide [2 (d)]”, for which the “ED50 (dose for 50% inhibition of apomorphine-induced climbing)” value was determined as 0.52 mg/kg p.o.
In the case of `COc1cc(N)c(Cl)cc1C(=O)N[C@H]1CCN2C[C@@H](c3ccc(F)cc3)C[C@H]2C1` (relative stereo) [2 (b), (±) 4-Amino-5-chloro-2-methoxy-N-[7'β-(3'β-p-fluorophenyl-1'-aza-5'αH-bicyclo[4,3,0]nonyl)]benzamide], the ED50 (in general, the dose that gives a 50% effect, or the effect in half of the subjects) turned out to be 0.195 mg/kg.
Take `COc1cc(N)c(Cl)cc1C(=O)N[C@H]1CCN2C[C@@H](c3ccccc3)C[C@H]2C1` (relative stereo) [2 (a), (±) 4-Amino-5-chloro-2-methoxy-N-[7'β-(3'β-phenyl-1'-aza-5'αH-bicyclo[4,3,0]nonyl)]benzamide]: the ED50 was found to be 0.235 mg/kg.
In the case of `COc1cc(N)c(Cl)cc1C(=O)NC1CCN2CC(C)(c3ccccc3)CCC12` (racemic) [2 (c), (±) 4-Amino-5-chloro-2-methoxy-N-[7'β-[3'-methyl-3'-phenyl-1'-aza-5'αH-bicyclo[4,3,0]nonyl)]benzamide], the “ED50 (dose for 50% inhibition of apomorphine-induced climbing)” value is given as 0.48 mg/kg p.o.
